In US10980892B2, “Methods for the treatment of leptomeningeal carcinomatosis” (Angiochem Inc., priority 2015, dated 2021):

Legend:
[1] = tested on: leptomeningeal carcinomatosis; assay: Treatment of individual LC subjects with ANG1005 (Subjects 2, 3, 4, 8); format: in vivo, human
Source text: Subject 2 presented at the time of treatment with ANG1005 with an active tumor extending from the deep portion of the surgical cavity to the right tentorial surface and along the lateral right temporal occipital dural surface. Subject 2 started treatment with ANG1005 in October 2014 and received 7 cycles (once every three weeks). Treatment was terminated due to clinical disease progression.
Subject 3 presented at the time of treatment with ANG1005 with numerous (>10) brain metastases all of which had increased in size despite prior treatment. Extensive scattered osseous metastatic disease in head/neck. After presenting with a numb chin (left trigeminal cranial nerve deficits), Subject 3 was also found to have leptomeningeal disease. Subject 3 started treatment with ANG1005 in September 2014 and received 5 cycles (once every three weeks). Treatment was terminated due to adverse event (pneumonia).
Subject 4 is a person diagnosed in October 2011 with HER2+/ER−/PgR− ductal carcinoma in situ. In November 2012, Subject 4 was diagnosed with brain metastases, and in March 2015 the brain metastases relapsed with leptomeningeal carcinomatosis. Subject 4 previously received several courses of therapy including carboplatin from October to November 2011, denosumab from November 2011 to November 2012, paclitaxel from December 2011 to March 2012, WBRT, transtuzumab from May 2012 to November 2012, and kadcyla from April 2013 to December 2014. Subject 4 presented at the time of treatment with ANG1005 with parenchymal metastases present in the cerebellum and widespread LC of the cerebellum and cerebral hemispheres. In addition, Subject 4 presented with mild ventricular enlargement with compression upon the fourth ventricle and cutflow tracts. Subject 4 started treatment with ANG1005 in March 2015 and received 8 cycles (once every three weeks). Subject withdrew from treatment due to low performance scores.
Subject 8 started treatment with ANG1005 in April 2015 and received 2 cycles (once every three weeks). Subject 8 terminated from treatment in July 2015 due to clinical progression.

[2] = tested on: leptomeningeal carcinomatosis; assay: Kaplan-Meier estimates of survival for subjects with LC; format: in vivo, human; conditions: compared to historical median overall survival of 3-6 months following aggressive treatment
Source text: The Kaplan-Meier method was used to estimate the overall survival of LC subjects treated with ANG1005.

[3] = tested on: leptomeningeal carcinomatosis (LC); assay: Treatment of LC in breast cancer subjects, CNS RECIST brain parenchymal tumor response; format: in vivo, human; conditions: 600 mg/m^2 iv tri-weekly
Experimental: Twenty-eight subjects diagnosed with LC were administered 600 mg/m^2 of ANG1005 intravenously on a tri-weekly schedule. The subjects received between one and nine cycles of ANG1005.
The results of the treatment of the subjects according to CNS Response Evaluation Criteria in Solid Tumors (RECIST) based on brain parenchymal tumor response is shown in Table 2.

[4] = tested on: LRP receptor; assay: Inhibition of brain uptake of an Angiopep conjugate by LRP ligands
Source text: (§1) The methods of the invention may be especially useful in treating cancers having cells that express low density lipoprotein-related protein (LRP) receptor. The LRP receptor is expressed on the surface of cells, and is capable of binding to various substrates including aprotinin. The polypeptides described herein were designed based on the consensus kunitz-domain sequences that act as LRP receptor ligands (see, e.g., PCT Publication No. WO 2004/060403). Uptake of the conjugates including Angiopep-1 or Angiopep-2 is inhibited by LRP ligands, thus indicating involvement of LRP in this process.

[5] = target: T1, LRP receptor (Homo sapiens, UniProt Q07954); assay: Inhibition of uptake of Angiopep conjugates into cells; format: cell-based; conditions: Angiopep-2 10 or 100 μM
T1 construct: The LRP receptor is expressed on the surface of cells; endogenous in cells
Source text: as §1

T1 sequence (Q07954 20-4544): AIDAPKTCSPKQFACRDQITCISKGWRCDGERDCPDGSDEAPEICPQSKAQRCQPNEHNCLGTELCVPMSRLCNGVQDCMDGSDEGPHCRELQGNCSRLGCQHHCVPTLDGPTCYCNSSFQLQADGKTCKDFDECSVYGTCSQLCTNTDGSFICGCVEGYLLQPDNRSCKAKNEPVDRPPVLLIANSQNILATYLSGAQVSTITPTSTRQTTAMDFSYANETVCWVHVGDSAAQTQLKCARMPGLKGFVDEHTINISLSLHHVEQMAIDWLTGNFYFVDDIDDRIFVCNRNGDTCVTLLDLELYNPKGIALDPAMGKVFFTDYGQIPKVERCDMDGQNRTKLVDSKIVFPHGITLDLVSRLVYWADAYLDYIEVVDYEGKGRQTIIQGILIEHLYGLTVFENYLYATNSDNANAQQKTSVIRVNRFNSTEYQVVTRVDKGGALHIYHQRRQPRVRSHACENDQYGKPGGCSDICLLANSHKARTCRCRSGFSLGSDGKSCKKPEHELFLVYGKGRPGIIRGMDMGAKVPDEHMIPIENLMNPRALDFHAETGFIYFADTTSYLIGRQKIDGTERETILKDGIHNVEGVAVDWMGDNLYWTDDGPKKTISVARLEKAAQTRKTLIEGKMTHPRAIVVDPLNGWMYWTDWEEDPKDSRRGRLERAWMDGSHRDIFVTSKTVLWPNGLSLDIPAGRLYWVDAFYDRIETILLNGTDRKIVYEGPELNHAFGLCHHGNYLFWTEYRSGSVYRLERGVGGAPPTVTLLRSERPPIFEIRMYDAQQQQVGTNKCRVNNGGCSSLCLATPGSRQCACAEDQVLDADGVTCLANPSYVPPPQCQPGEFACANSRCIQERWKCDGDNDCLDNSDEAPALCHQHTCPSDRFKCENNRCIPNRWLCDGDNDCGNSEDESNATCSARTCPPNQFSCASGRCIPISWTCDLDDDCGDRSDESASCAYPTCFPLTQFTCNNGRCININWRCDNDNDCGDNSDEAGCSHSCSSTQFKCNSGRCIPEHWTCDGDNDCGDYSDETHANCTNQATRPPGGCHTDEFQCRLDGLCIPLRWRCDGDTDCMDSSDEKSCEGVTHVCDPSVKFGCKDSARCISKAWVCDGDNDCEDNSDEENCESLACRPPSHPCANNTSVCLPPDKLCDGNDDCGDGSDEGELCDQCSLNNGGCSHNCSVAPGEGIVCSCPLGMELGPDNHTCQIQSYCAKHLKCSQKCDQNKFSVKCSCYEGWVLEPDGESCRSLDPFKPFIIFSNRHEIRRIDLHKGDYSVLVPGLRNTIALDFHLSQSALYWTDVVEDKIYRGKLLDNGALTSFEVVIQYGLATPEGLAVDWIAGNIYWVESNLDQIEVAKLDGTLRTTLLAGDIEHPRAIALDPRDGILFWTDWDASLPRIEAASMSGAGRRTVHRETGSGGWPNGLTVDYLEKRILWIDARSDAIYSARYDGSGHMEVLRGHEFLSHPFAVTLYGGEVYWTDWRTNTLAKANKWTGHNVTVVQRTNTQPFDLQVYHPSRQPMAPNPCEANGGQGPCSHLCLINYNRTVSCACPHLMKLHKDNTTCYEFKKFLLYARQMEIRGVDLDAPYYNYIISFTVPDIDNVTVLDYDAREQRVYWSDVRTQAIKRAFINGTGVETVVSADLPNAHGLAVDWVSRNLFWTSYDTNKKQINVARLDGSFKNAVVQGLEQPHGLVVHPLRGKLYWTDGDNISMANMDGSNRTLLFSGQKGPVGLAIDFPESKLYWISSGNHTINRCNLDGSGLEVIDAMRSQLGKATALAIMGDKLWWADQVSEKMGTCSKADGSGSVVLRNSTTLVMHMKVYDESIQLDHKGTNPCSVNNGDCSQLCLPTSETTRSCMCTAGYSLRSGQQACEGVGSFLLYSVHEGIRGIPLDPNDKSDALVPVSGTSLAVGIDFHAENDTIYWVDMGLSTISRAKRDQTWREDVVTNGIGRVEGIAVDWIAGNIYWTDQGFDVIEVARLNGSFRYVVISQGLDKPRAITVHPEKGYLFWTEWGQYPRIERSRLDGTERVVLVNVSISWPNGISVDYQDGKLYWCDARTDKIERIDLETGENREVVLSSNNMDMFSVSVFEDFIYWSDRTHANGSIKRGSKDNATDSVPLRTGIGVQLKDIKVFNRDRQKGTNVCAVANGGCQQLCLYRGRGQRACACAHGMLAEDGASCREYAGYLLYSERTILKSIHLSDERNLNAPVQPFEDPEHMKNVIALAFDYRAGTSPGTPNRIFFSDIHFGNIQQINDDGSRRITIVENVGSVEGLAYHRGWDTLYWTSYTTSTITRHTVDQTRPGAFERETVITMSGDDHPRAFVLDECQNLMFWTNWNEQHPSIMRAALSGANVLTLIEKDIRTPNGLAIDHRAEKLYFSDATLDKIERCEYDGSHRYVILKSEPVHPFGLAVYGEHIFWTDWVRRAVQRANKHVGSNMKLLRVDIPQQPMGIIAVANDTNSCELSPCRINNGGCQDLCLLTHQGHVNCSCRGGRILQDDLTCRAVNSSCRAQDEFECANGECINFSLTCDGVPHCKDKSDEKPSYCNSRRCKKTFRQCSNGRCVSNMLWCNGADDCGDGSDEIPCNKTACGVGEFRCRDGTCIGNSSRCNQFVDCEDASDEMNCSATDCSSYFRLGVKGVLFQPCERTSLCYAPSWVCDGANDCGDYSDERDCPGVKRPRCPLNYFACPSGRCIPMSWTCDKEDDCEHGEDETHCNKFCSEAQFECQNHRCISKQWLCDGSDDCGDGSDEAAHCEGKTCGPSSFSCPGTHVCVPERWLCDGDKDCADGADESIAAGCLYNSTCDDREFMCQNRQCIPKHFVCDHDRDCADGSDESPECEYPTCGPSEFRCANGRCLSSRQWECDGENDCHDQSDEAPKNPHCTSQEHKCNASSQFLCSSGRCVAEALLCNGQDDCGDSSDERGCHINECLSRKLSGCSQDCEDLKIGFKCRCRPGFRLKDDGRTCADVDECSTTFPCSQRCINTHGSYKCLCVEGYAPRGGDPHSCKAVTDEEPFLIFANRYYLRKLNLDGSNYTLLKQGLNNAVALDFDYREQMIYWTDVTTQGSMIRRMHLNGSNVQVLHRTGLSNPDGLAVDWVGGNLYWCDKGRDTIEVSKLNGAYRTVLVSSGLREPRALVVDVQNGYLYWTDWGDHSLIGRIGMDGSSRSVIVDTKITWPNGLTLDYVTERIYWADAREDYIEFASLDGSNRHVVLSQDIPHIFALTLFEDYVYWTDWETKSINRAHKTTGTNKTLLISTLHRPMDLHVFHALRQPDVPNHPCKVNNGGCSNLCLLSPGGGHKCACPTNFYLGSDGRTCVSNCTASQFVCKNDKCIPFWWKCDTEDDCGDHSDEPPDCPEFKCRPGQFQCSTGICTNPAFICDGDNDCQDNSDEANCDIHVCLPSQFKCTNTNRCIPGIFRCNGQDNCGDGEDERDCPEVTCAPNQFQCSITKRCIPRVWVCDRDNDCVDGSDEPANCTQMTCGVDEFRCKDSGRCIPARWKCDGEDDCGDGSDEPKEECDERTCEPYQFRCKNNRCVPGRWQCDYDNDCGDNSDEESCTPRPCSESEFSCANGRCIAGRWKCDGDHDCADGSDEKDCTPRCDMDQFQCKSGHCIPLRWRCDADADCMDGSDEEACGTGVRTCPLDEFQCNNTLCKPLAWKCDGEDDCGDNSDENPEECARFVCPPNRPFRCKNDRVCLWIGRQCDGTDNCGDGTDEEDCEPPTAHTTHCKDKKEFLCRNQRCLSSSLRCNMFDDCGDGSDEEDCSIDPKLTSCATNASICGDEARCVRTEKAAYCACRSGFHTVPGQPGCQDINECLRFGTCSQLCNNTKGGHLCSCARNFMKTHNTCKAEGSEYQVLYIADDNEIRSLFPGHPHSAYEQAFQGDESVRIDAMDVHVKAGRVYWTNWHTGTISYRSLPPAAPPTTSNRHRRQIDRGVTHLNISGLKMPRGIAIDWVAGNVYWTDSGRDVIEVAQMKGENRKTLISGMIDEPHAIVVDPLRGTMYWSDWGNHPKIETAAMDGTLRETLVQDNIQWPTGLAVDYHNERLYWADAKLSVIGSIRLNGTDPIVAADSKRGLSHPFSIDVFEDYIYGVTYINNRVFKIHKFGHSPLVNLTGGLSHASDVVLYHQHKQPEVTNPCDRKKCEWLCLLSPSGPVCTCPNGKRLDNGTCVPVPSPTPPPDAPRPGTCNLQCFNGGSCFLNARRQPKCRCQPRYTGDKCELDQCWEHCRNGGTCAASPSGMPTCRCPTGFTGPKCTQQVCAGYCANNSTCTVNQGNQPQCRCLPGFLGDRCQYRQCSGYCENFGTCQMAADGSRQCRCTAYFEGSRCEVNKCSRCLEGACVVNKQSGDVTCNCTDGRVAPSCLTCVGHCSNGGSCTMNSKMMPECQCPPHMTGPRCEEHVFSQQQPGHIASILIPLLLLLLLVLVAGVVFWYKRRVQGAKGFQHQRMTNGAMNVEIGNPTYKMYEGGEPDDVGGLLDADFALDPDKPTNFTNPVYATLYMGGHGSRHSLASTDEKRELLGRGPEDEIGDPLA

For `CC(=O)O[C@H]1C(=O)[C@@]2(C)[C@H]([C@H](OC(=O)c3ccccc3)[C@]3(O)C[C@H](OC(=O)C(OC(=O)CCC(=O)NCCCC[C@H](NN[C@@H](Cc4ccccc4)C(=O)C(=O)C(CC(N)=O)NC(=O)[C@H](CC(N)=O)NC(=O)[C@H](CCCNC(=N)N)NC(=O)[C@H](CCCCNC(=O)CCC(=O)O[C@@H](C(=O)O[C@H]4C[C@@]5(O)[C@@H](OC(=O)c6ccccc6)[C@@H]6[C@]7(OC(C)=O)CO[C@@H]7C[C@H](O)[C@@]6(C)C(=O)[C@H](OC(C)=O)C(=C4C)C5(C)C)[C@@H](NC(=O)c4ccccc4)c4ccccc4)NNCC(=O)C(=O)[C@H](CCCNC(=N)N)NC(=O)[C@H](CO)NC(=O)CNC(=O)CNC(=O)C(Cc4ccc(O)cc4)NC(=O)[C@H](Cc4ccccc4)NC(=O)C(Cc4ccccc4)NCC(=O)[C@H](NC(=O)CCC(=O)O[C@@H](C(=O)O[C@H]4C[C@@]5(O)[C@@H](OC(=O)c6ccccc6)[C@@H]6[C@]7(OC(C)=O)CO[C@@H]7C[C@H](O)[C@@]6(C)C(=O)[C@H](OC(C)=O)C(=C4C)C5(C)C)[C@@H](NC(=O)c4ccccc4)c4ccccc4)C(C)O)C(=O)N[C@H](C(=O)NC(CCC(=O)O)C(=O)N[C@@H](CCC(=O)O)C(=O)NC(C=O)Cc4ccc(O)cc4)[C@@H](C)O)[C@@H](NC(=O)c4ccccc4)c4ccccc4)C(C)=C1C3(C)C)[C@]1(OC(C)=O)CO[C@@H]1C[C@@H]2O` (stereo partly shown) [ANG1005], the “Response of leptomeningeal carcinomatosis” value ([1]; Subject 2, HER2+/ER−/PgR+, 7 cycles once every three weeks, dural lesion no longer apparent, leptomeningeal nodule decreasing in size) was “responded”, the “Response of leptomeningeal carcinomatosis” value ([1]; Subject 3, HER2+/ER−/PgR−, 5 cycles once every three weeks) was “improved both radiographically and clinically” and the “Adverse event causing treatment termination” value ([1]; Subject 3, after 5 cycles once every three weeks) was “pneumonia”. The “Response of leptomeningeal carcinomatosis” value ([1]; Subject 4, HER2+/ER−/PgR−, 8 cycles once every three weeks, diminished nodular leptomeningeal enhancement, decreased leptomeningeal tumor burden) was “responded”, the “Response of leptomeningeal carcinomatosis” value ([1]; Subject 8, HER2+/ER+/PgR−, 2 cycles once every three weeks, improvement in extensive LC in the cerebellum) was “responded” and the “Median overall survival (Kaplan-Meier estimate)” value [2] was “increase median overall survival”. The “Partial Response (PR), number of patients” value ([3]; All Patients (n = 23)) was 5, the “Partial Response (PR), percent of patients” value ([3]; All Patients (n = 23)) was “(22%)” and the “Patient Benefit (PR + SD), number of patients” value ([3]; All Patients (n = 23)) was 17. For the same compound, the “Progressive Disease, number of patients” value ([3]; All Patients (n = 23)) was 6, the “Progressive Disease, percent of patients” value ([3]; All Patients (n = 23)) was “(26%)” and the “Stable Disease (SD), number of patients” value ([3]; All Patients (n = 23)) was 12. The “Stable Disease (SD), percent of patients” value ([3]; All Patients (n = 23)) was “(52%)”, the “Partial Response (PR), number of patients” value ([3]; HER2+ (n = 15)) was 4 and the “Partial Response (PR), percent of patients” value ([3]; HER2+ (n = 15)) was “(27%)”. For the same compound, the “Patient Benefit (PR + SD), number of patients” value ([3]; HER2+ (n = 15)) was 12, the “Progressive Disease, number of patients” value ([3]; HER2+ (n = 15)) was 3 and the “Progressive Disease, percent of patients” value ([3]; HER2+ (n = 15)) was “(20%)”. The “Stable Disease (SD), number of patients” value ([3]; HER2+ (n = 15)) was 8, the “Stable Disease (SD), percent of patients” value ([3]; HER2+ (n = 15)) was “(53%)” and the “Partial Response (PR), number of patients” value ([3]; HER2− (n = 8)) was 1. The “Partial Response (PR), percent of patients” value ([3]; HER2− (n = 8)) was “(12.5%)”, the “Patient Benefit (PR + SD), number of patients” value ([3]; HER2− (n = 8)) was 5 and the “Patient Benefit (PR + SD), percent of patients” value ([3]; HER2− (n = 8)) was “(62.5%)”. The “Progressive Disease, number of patients” value ([3]; HER2− (n = 8)) was 3, the “Progressive Disease, percent of patients” value ([3]; HER2− (n = 8)) was “(37.5%)” and the “Stable Disease (SD), number of patients” value ([3]; HER2− (n = 8)) was 4. The “Stable Disease (SD), percent of patients” value ([3]; HER2− (n = 8)) was “(50%)”.

With RAP: LRP ligand the “Effect on brain uptake of an Angiopep conjugate” value ([4]; RAP 200 nM) was “capable of reducing brain uptake”.

TFFYGGSRGKRNNFKTEEY [Angiopep-2] was tested, and the “Effect on uptake of the conjugates into cells” value [5] was “able to reduce uptake”.

aprotinin was tested, and the “Effect on brain uptake of an Angiopep conjugate” value ([4]; aprotinin 10 μM) was “capable of reducing brain uptake”.
